PubChem BioAssay AID1963433 (Molecular Pharmacology Branch, DTP, NCI, 2024)
pIC50: −log10 of the molar value.

Tested on: 772245-204-R-J1-PDC complex spheroid growth
Experiment: Anticancer human tumor 772245-204-R-J1-PDC patient-derived rhabdomyosarcoma cell line growth inhibition [Asc]
Details: for pIC50: curve of first compound; for viability, T/C: stronger effect = lower value
Procedure, shortened: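 Complex solid-tumor spheroids incorporating human endothelial and mesenchymal stem cells received single agents or combinations over half-log dilution ranges anchored to clinical Cmax.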

[1] = second compound 0.03 µM, first compound 0.0316 µM
[2] = second compound 0.03 µM, first compound 0.1 µM
[3] = second compound 0.03 µM, first compound 0.316 µM
[4] = second compound 0.03 µM, first compound 1 µM
[5] = second compound 0.03 µM, first compound 3.16 µM
[6] = second compound 0.03 µM, first compound 10 µM
[7] = second compound 0.0949 µM, first compound 0.0316 µM
[8] = second compound 0.0949 µM, first compound 0.1 µM
[9] = second compound 0.0949 µM, first compound 0.316 µM
[10] = second compound 0.0949 µM, first compound 1 µM
[11] = second compound 0.0949 µM, first compound 3.16 µM
[12] = second compound 0.0949 µM, first compound 10 µM
[13] = second compound 0.3 µM, first compound 0.0316 µM
[14] = second compound 0.3 µM, first compound 0.1 µM
[15] = second compound 0.3 µM, first compound 0.316 µM
[16] = second compound 0.3 µM, first compound 1 µM
[17] = second compound 0.3 µM, first compound 3.16 µM
[18] = second compound 0.3 µM, first compound 10 µM
[19] = second compound 0.949 µM, first compound 0.0316 µM
[20] = second compound 0.949 µM, first compound 0.1 µM
[21] = second compound 0.949 µM, first compound 0.316 µM
[22] = second compound 0.949 µM, first compound 1 µM
[23] = second compound 0.949 µM, first compound 3.16 µM
[24] = second compound 0.949 µM, first compound 10 µM
[25] = second compound 3 µM, first compound 0.0316 µM
[26] = second compound 3 µM, first compound 0.1 µM
[27] = second compound 3 µM, first compound 0.316 µM
[28] = second compound 3 µM, first compound 1 µM
[29] = second compound 3 µM, first compound 3.16 µM
[30] = second compound 3 µM, first compound 10 µM
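Note: compound exposure lasted seven days.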
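Throughout, for viability, T/C: 100% = DMSO vehicle control viability.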

Structure (SMILES)	pIC50 (second compound 0.03 µM)	pIC50 (second compound 0.0949 µM)	pIC50 (second compound 0.3 µM)	pIC50 (second compound 0.949 µM)	pIC50 (second compound 3 µM)	viability, T/C [1]	viability, T/C [2]	viability, T/C [3]	viability, T/C [4]	viability, T/C [7]	viability, T/C [8]	viability, T/C [9]	viability, T/C [10]	viability, T/C [13]	viability, T/C [14]	viability, T/C [15]	viability, T/C [16]	viability, T/C [19]	viability, T/C [20]	viability, T/C [21]	further results
C#Cc1c(F)ccc2cc(O)cc(-c3ncc4c(N5CC6CCC(C5)N6)nc(OCC56CCCN5CC(F)C6)nc4c3F)c12 (stereo not given) + CCN1C(C(=O)NC23CCC(C(=O)O)(CC2)CC3)C(c2cccc(Cl)c2F)C2(C(=O)Nc3cc(Cl)ccc32)C12CCCCC2	< 5.00	< 5.00	< 5.00	< 5.00	< 5.00	98.8%	106%	94.8%	95.8%	98.4%	91.9%	93%	86%	108%	99.2%	106%	111%	90%	90.9%	86%	viability, T/C [5]: 118%; viability, T/C [6]: 89.5%; viability, T/C [11]: 93.5%; viability, T/C [12]: 78.4%; viability, T/C [17]: 81.2%; viability, T/C [18]: 80.6%; viability, T/C [22]: 86.9%; viability, T/C [23]: 91.6%; viability, T/C [24]: 76.5%; viability, T/C [25]: 73.1%; viability, T/C [26]: 79.2%; viability, T/C [27]: 77.1%; viability, T/C [28]: 67.8%; viability, T/C [29]: 67.3%; viability, T/C [30]: 54.2%
C=C(F)C(=O)N1CCN(c2nc(OCC3CCCN3C)nc3c2CCN(c2cccc4cccc(Cl)c24)C3)CC1CC#N (stereo not given) + CCN1C(C(=O)NC23CCC(C(=O)O)(CC2)CC3)C(c2cccc(Cl)c2F)C2(C(=O)Nc3cc(Cl)ccc32)C12CCCCC2	5.41	5.40	5.35	5.48	5.68	94.9%	101%	83.1%	97.2%	93.7%	94.5%	85.3%	89.6%	95.8%	96.7%	85.6%	87%	92.3%	83.7%	91.6%	viability, T/C [5]: 61.6%; viability, T/C [6]: 0.2%; viability, T/C [11]: 61.7%; viability, T/C [12]: 0.17%; viability, T/C [17]: 71.8%; viability, T/C [18]: 0.18%; viability, T/C [22]: 96.7%; viability, T/C [23]: 51.9%; viability, T/C [24]: 0.16%; viability, T/C [25]: 72.7%; viability, T/C [26]: 79.8%; viability, T/C [27]: 72.5%; viability, T/C [28]: 73%; viability, T/C [29]: 37.5%; viability, T/C [30]: 0.38%
C=CC(=O)N1CCN(c2nc(=O)n(-c3c(C)ccnc3C(C)C)c3nc(-c4c(O)cccc4F)c(F)cc23)C(C)C1 (stereo not given) + CCN1C(C(=O)NC23CCC(C(=O)O)(CC2)CC3)C(c2cccc(Cl)c2F)C2(C(=O)Nc3cc(Cl)ccc32)C12CCCCC2	< 5.00	< 5.00	< 5.00	< 5.00	< 5.00	105%	102%	94.9%	113%	112%	104%	103%	102%	104%	111%	113%	113%	111%	94.8%	99.5%	viability, T/C [5]: 110%; viability, T/C [6]: 86.4%; viability, T/C [11]: 106%; viability, T/C [12]: 103%; viability, T/C [17]: 113%; viability, T/C [18]: 93.8%; viability, T/C [22]: 105%; viability, T/C [23]: 104%; viability, T/C [24]: 79.3%; viability, T/C [25]: 81.9%; viability, T/C [26]: 85.7%; viability, T/C [27]: 74%; viability, T/C [28]: 77%; viability, T/C [29]: 75.2%; viability, T/C [30]: 60.8%
CNC(C)C(=O)NC1CN(S(=O)(=O)c2cccc(S(=O)(=O)N3CCC4CCC(C(=O)NC(c5ccccc5)c5ccccc5)N4C(=O)C(NC(=O)C(C)NC)C3)c2)CCC2CCC(C(=O)NC(c3ccccc3)c3ccccc3)N2C1=O (stereo not given) + CCN1C(C(=O)NC23CCC(C(=O)O)(CC2)CC3)C(c2cccc(Cl)c2F)C2(C(=O)Nc3cc(Cl)ccc32)C12CCCCC2	< 6.00	< 6.00	< 6.00	< 6.00	6.24	88%	91.8%	94.9%	86.8%	75.3%	89.7%	79.2%	85.3%	84.6%	68.9%	70.8%	88.1%	78.8%	75.2%	73%	viability, T/C (second compound 0.03 µM, first compound 0.00316 µM): 86.2%; viability, T/C (second compound 0.03 µM, first compound 0.01 µM): 102%; viability, T/C (second compound 0.0949 µM, first compound 0.00316 µM): 94.5%; viability, T/C (second compound 0.0949 µM, first compound 0.01 µM): 98.9%; viability, T/C (second compound 0.3 µM, first compound 0.00316 µM): 74.8%; viability, T/C (second compound 0.3 µM, first compound 0.01 µM): 83%; viability, T/C (second compound 0.949 µM, first compound 0.00316 µM): 88.2%; viability, T/C (second compound 0.949 µM, first compound 0.01 µM): 87.4%; viability, T/C [22]: 62.4%; viability, T/C (second compound 3 µM, first compound 0.00316 µM): 72.8%; viability, T/C (second compound 3 µM, first compound 0.01 µM): 62.2%; viability, T/C [25]: 60.2%; viability, T/C [26]: 56.7%; viability, T/C [27]: 43.2%; viability, T/C [28]: 53.2%
